Laboratory results reported in patent US12686673B2 (Blueprint Medicines Corporation, priority 2020, dated 2026).
Where a name gives a salt, the structure may show the parent alone. Read-outs that look alike come from different tables or passages of the source.

Key:
Assay type in all cases: cell-based
[1] = target: EGFR(D770_N771insSVD) expressing Ba/F3 stable cell line (Homo sapiens, UniProt P00533, DUP768-770, cells depend on it); experiment: Cellular proliferation (Alamar Blue) assay, EGFR D770_N771insSVD Ba/F3; conditions: 72 hr, read-out: D770 IC50
EGFR(D770_N771insSVD) expressing Ba/F3 stable cell line, sequence (P00533 with tags, fused parts or gaps DUP768-770): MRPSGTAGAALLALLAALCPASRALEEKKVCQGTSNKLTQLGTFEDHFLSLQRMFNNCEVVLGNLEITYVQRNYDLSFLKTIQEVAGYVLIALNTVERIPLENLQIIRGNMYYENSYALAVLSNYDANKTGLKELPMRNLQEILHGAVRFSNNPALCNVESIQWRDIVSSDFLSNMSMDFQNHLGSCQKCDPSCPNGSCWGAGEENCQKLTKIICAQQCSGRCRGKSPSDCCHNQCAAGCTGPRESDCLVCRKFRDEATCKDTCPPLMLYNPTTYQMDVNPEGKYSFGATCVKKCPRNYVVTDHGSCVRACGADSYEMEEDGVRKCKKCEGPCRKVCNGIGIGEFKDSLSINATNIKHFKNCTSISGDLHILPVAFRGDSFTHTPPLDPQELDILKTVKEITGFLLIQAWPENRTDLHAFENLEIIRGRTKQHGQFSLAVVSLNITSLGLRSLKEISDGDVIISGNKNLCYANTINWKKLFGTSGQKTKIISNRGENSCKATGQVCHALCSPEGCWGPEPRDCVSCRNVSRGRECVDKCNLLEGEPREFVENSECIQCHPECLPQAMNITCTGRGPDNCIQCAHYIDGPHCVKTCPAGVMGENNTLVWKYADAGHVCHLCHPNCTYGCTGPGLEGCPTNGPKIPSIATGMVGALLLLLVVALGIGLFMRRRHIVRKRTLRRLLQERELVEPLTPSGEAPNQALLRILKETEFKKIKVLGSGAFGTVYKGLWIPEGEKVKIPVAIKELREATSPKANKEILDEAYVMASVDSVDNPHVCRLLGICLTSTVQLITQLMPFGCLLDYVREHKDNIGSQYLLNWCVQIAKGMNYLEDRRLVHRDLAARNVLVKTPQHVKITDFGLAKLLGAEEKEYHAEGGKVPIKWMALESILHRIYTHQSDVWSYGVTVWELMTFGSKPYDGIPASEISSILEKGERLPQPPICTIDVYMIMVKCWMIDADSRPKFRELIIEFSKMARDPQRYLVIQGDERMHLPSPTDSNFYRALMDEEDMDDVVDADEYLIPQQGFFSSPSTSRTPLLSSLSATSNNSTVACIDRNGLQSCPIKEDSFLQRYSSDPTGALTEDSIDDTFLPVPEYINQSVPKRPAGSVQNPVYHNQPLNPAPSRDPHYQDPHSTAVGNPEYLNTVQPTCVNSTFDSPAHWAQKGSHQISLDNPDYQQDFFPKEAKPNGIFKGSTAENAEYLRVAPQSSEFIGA
Summary of the method: (§1)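 Steps: plate 15,000 Ba/F3 cells/well in RPMI/10% FBS; rest 16-18 h, 37 °C; add compound at final 10-0.0005 μM (3-fold series) or DMSO; incubate 72 hr; add Alamar Blue; read after 3 h.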

[2] = target: EGFR (A767_dupASV) expressing Ba/F3 stable cell line (Homo sapiens, UniProt P00533, DUP767-769, cells depend on it); experiment: Cellular proliferation (Alamar Blue) assay, EGFR A767_dupASV Ba/F3; conditions: 72 hr, read-out: A767 IC50
EGFR (A767_dupASV) expressing Ba/F3 stable cell line, sequence (P00533 with tags, fused parts or gaps DUP767-769): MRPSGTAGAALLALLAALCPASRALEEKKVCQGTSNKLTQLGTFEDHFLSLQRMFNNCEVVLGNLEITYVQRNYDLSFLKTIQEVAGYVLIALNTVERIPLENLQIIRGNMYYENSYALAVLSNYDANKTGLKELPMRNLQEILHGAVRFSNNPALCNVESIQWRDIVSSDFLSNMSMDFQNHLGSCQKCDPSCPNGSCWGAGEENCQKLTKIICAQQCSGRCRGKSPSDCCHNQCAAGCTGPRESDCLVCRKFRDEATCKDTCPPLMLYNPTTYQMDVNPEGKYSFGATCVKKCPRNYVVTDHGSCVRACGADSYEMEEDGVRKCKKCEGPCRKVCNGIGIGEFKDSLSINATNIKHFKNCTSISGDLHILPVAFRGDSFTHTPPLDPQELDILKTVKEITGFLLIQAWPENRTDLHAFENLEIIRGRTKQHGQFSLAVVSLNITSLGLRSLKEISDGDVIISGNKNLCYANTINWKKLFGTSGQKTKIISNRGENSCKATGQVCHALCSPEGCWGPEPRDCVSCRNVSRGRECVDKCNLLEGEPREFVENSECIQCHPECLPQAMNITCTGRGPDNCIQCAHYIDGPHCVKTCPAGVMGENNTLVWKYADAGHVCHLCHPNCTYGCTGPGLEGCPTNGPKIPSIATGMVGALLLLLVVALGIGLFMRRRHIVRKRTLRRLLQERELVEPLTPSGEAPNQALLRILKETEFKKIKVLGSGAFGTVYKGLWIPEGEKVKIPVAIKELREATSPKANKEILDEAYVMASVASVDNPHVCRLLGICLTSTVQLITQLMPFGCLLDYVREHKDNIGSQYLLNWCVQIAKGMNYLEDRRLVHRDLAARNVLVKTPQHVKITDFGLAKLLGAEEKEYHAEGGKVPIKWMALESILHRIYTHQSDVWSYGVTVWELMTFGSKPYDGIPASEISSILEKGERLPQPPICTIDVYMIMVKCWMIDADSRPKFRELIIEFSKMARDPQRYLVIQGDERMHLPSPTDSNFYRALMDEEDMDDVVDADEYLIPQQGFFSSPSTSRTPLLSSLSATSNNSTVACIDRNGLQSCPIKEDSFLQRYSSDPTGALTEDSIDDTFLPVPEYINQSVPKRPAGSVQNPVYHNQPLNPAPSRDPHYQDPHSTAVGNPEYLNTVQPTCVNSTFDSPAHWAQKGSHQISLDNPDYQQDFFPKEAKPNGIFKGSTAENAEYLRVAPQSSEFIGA
Summary of the method: as §1

A431 cells = experiment: Cellular proliferation (Alamar Blue) assay, A431
[3] = Homo sapiens, A-431; A431 cells, Alamar Blue, 72 hr; read-out: A431 IC50
[4] = Homo sapiens, A-431; A431 cells, 72 hr, Alamar Blue; read-out: A431 IC50

Row | GI50 [1] [µM] | GI50 [2] [µM] | IC50 (A431 cells; [3]) [µM] | IC50 (A431 cells; [4]) [µM] | SMILES
1 | 2.89 | 2.66 | > 10 | – | C=CC(=O)Nc1ccc(F)c(Nc2nc(Nc3cnn(C)c3)ncc2-c2ccc(NC(C)=O)cc2)c1 [Compound 58, N-(3-((5-(4-acetamidophenyl)-2-((1-methyl-1H-pyrazol-4-yl)amino)pyrimidin-4-yl)amino)-4-fluorophenyl)acrylamide]
2 | 0.724 | 1.13 | – | 0.539 | C=CC(=O)Nc1ccc(F)c(Nc2nc(Nc3cccnc3)ncc2-c2ccc(C(F)(F)F)cc2)c1 [Compound 232, N-(4-fluoro-3-((2-(pyridin-3-ylamino)-5-(4-(trifluoromethyl)phenyl)pyrimidin-4-yl)amino)phenyl)acrylamide]
3 | 10 | 9.88 | – | 9.77 | C=C=CC(=O)Nc1ccc(F)c(Nc2nc(Nc3cnn(C)c3)ncc2-c2ccc(C(F)(F)F)cc2)c1 [Compound 251, N-(4-fluoro-3-((2-((1-methyl-1H-pyrazol-4-yl)amino)-5-(4-(trifluoromethyl)phenyl)pyrimidin-4-yl)amino)phenyl)buta-2,3-dienamide]
4 | 0.328 | 0.284 | 1.53 | – | C=CC(=O)Nc1ccc(F)c(Nc2nc(Nc3cnn(C)c3)ncc2C2=CCOCC2)c1 [Compound 124, N-(3-((5-(3,6-dihydro-2H-pyran-4-yl)-2-((1-methyl-1H-pyrazol-4-yl)amino)pyrimidin-4-yl)amino)-4-fluorophenyl)acrylamide]
5 | 3.21 | 8.47 | 7.55 | – | C=CC(=O)Nc1ccnc(Nc2nc(Nc3cnn(C)c3)ncc2-c2ccc(C(F)(F)F)cc2)c1 [Compound 196, N-(2-((2-((1-methyl-1H-pyrazol-4-yl)amino)-5-(4-(trifluoromethyl)phenyl)pyrimidin-4-yl)amino)pyridin-4-yl)acrylamide]
6 | > 10 | > 10 | > 10 | – | C=CC(=O)Nc1ccc(N(C)C)c(Nc2nc(Nc3cnn(C)c3)ncc2-c2ccc(C(F)(F)F)cc2)c1 [Compound 119, N-(4-(dimethylamino)-3-((2-((1-methyl-1H-pyrazol-4-yl)amino)-5-(4-(trifluoromethyl)phenyl)pyrimidin-4-yl)amino)phenyl)acrylamide trifluoroacetate]
7 | 0.11 | 0.211 | – | 0.133 | C=CC(=O)Nc1ccc(F)c(Nc2nc(Nc3cnn(C4CCOCC4)c3)ncc2-c2ccc(C(F)(F)F)cc2)c1 [Compound 220, N-(4-fluoro-3-((2-((1-(tetrahydro-2H-pyran-4-yl)-1H-pyrazol-4-yl)amino)-5-(4-(trifluoromethyl)phenyl)pyrimidin-4-yl)amino)phenyl)acrylamide]
8 | 8.62 | 3.29 | > 10 | – | C=CC(=O)Nc1ccc(F)c(Nc2nc(Nc3cnn(C)c3)ncc2C(=O)N(C)c2ccccc2)c1 [Compound 49, 4-((5-acrylamido-2-fluorophenyl)amino)-N-methyl-2-((1-methyl-1H-pyrazol-4-yl)amino)-N-phenylpyrimidine-5-carboxamide]
9 | 0.308 | 0.543 | – | > 10 | C=CC(=O)Nc1ccc(F)c(Nc2nc(Nc3cn(C)cn3)ncc2-c2ccc(C(F)(F)F)cc2)c1 [Compound 214, N-(4-fluoro-3-((2-((1-methyl-1H-imidazol-4-yl)amino)-5-(4-(trifluoromethyl)phenyl)pyrimidin-4-yl)amino)phenyl)acrylamide]
10 | > 10 | > 10 | > 10 | – | C=CC(=O)Nc1ccc(F)c(Nc2nc(Nc3cnn(C)c3)cnc2Cl)c1 [Compound 153, N-(3-((3-chloro-6-((1-methyl-1H-pyrazol-4-yl)amino)pyrazin-2-yl)amino)-4-fluorophenyl)acrylamide]
11 | 0.267 | 0.241 | 0.258 | – | C=CC(=O)Nc1cccc(Oc2nc(Nc3cnn(C)c3)ncc2C2=CCOCC2)c1 [Compound 192, N-(3-((5-(3,6-dihydro-2H-pyran-4-yl)-2-((1-methyl-1H-pyrazol-4-yl)amino)pyrimidin-4-yl)oxy)phenyl)acrylamide]
12 | 3.14 | 2.88 | > 10 | – | C=CC(=O)Nc1ccc(F)c(Nc2nc(Nc3cnn(C)c3)ncc2-c2ccc(S(N)(=O)=O)cc2)c1 [Compound 138, N-(4-fluoro-3-((2-((1-methyl-1H-pyrazol-4-yl)amino)-5-(4-sulfamoylphenyl)pyrimidin-4-yl)amino)phenyl)acrylamide]
13 | 1.69 | 8.47 | – | 1.58 | C=CC(=O)Nc1ccc(F)c(Nc2nc(Nc3cccc(CN(C)C)c3)ncc2-c2ccc(C(F)(F)F)cc2)c1 [Compound 218, N-(3-((2-((3-((dimethylamino)methyl)phenyl)amino)-5-(4-(trifluoromethyl)phenyl)pyrimidin-4-yl)amino)-4-fluorophenyl)acrylamide]
14 | 0.395 | 0.448 | 0.373 | – | C=CC(=O)Nc1cccc(Nc2nc(Nc3cnn(C)c3)ncc2-c2ccc(C(F)(F)F)cc2)n1 [Compound 197, N-(6-((2-((1-methyl-1H-pyrazol-4-yl)amino)-5-(4-(trifluoromethyl)phenyl)pyrimidin-4-yl)amino)pyridin-2-yl)acrylamide]
15 | > 10 | 8.41 | 3.28 | – | C=CC(=O)Nc1ccc(F)c(Nc2nc(Nc3cnn(C)c3)ncc2-c2cccc(CN(C)C)c2)c1 [Compound 134, N-(3-((5-(3-((dimethylamino)methyl)phenyl)-2-((1-methyl-1H-pyrazol-4-yl)amino)pyrimidin-4-yl)amino)-4-fluorophenyl)acrylamide]
16 | > 10 | > 10 | 3.67 | – | C=CC(=O)Nc1ccc(F)c(Nc2nc(NCCN(C)C)ncc2-c2ccc(C(F)(F)F)cc2)c1 [Compound 43, N-(3-((2-((2-(dimethylamino)ethyl)amino)-5-(4-(trifluoromethyl)phenyl)pyrimidin-4-yl)amino)-4-fluorophenyl)acrylamide trifluoroacetate]
17 | > 10 | > 10 | 0.484 | – | C=CC(=O)Nc1ccc(F)c(Nc2nc(Nc3ccc(N(C)C)cc3)ncc2-c2ccc(C(F)(F)F)cc2)c1 [Compound 44, N-(3-((2-((4-(dimethylamino)phenyl)amino)-5-(4-(trifluoromethyl)phenyl)pyrimidin-4-yl)amino)-4-fluorophenyl)acrylamide trifluoroacetate]
18 | 8.55 | 3.9 | – | 4.21 | C=CC(=O)Nc1ccc(F)c(Nc2nc(Nc3cnn(C)c3)nc3ccc(C(F)(F)F)cc23)c1 [Compound 231, N-(4-fluoro-3-((2-((1-methyl-1H-pyrazol-4-yl)amino)-6-(trifluoromethyl)quinazolin-4-yl)amino)phenyl)acrylamide]
19 | 0.671 | 0.942 | > 10 | – | C=CC(=O)Nc1ccc(F)c(Nc2nc(Nc3cnn(C)c3)ncc2-c2cn[nH]c2)c1 [Compound 98, N-(4-fluoro-3-((2-((1-methyl-1H-pyrazol-4-yl)amino)-5-(1H-pyrazol-4-yl)pyrimidin-4-yl)amino)phenyl)acrylamide]
20 | 0.916 | 1.13 | – | > 10 | C=CC(=O)Nc1ccc(F)c(Nc2nc(Nc3csc(C)c3)ncc2-c2ccc(C(F)(F)F)cc2)c1 [Compound 217, N-(4-fluoro-3-((2-((5-methylthiophen-3-yl)amino)-5-(4-(trifluoromethyl)phenyl)pyrimidin-4-yl)amino)phenyl)acrylamide]
